Source: ChEMBL document CHEMBL1201862, “PubChem BioAssay data set” (2004)
The source made the active and inactive calls.

Experiments:
[1] = biological target: Melanin-concentrating hormone receptor 1 (Homo sapiens, UniProt Q99705); test: Late-stage fluorescence-based counterscreen for antagonists of the G-protein coupled receptor 7 (GPR7): cell-based dose response assay to identify antagonists of the melanin-concentrating hormone receptor 1 (MCHR1) Set 5.; format: functional
[2] = biological target: T1, Neuropeptides B/W receptor type 1 (Homo sapiens, UniProt P48145); test: human NPBW1 receptor blockade, IC50 – cell-based, fluorescence, dose response, set 5, late-stage follow-up (AID 588566); format: functional
T1 sequence (P48145 whole entry): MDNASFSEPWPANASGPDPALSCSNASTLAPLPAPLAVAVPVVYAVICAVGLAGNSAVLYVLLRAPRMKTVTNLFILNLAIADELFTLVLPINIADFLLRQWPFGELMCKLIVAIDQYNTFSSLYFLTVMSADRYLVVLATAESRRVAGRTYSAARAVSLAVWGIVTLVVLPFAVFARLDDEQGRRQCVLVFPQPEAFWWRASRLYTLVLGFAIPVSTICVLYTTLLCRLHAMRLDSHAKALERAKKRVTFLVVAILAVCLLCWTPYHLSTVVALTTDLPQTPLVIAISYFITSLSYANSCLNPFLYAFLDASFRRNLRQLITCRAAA

[3] = biological target: Dual specificity protein kinase CLK1 (Homo sapiens, UniProt P49759); test: inhibition of human CLK1 activity – biochemical, cherry-picked samples, selectivity assay for Dyrk1A inhibitor project, dose response (AID 588811)
Dual specificity protein kinase CLK1, sequence (P49759 whole entry): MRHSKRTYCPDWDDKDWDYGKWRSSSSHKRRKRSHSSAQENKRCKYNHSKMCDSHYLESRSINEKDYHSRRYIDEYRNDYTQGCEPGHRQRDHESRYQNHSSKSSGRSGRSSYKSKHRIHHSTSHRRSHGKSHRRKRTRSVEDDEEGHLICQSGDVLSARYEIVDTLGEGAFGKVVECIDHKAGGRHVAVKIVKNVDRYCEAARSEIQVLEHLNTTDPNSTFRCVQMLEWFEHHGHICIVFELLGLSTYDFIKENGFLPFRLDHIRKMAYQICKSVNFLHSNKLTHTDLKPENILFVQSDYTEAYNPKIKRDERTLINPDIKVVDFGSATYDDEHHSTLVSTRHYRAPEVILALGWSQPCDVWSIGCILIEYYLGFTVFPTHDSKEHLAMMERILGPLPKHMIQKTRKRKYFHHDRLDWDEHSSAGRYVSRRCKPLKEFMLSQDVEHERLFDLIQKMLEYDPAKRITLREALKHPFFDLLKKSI

[4] = viability loss of HMLE_sh_eGFP cells – cell-based, luminescence, counter-screen for HMLE_sh_ECad selective toxicity project, dose response (AID 463074); format: functional, Homo sapiens;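 further: HMLE human mammary epithelial cells expressing control shRNA against eGFP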
[5] = Luminescence Cell-Based Dose Retest to Confirm Inhibitors of Cancer Stem Cells. [Related pubchem assays (depositor defined):AID2717, AID2721]; format: functional; details: Homo sapiens
[6] = biological target: T2, Rac GTPase-activating protein 1 (Homo sapiens, UniProt Q9H0H5); test: blockers of MgcRacGAP-driven Rac1 GTP hydrolysis – biochemical, ADP Hunter fluorescence, primary and confirmatory, confirmation (AID 624330); format: functional
T2 sequence (Q9H0H5 whole entry): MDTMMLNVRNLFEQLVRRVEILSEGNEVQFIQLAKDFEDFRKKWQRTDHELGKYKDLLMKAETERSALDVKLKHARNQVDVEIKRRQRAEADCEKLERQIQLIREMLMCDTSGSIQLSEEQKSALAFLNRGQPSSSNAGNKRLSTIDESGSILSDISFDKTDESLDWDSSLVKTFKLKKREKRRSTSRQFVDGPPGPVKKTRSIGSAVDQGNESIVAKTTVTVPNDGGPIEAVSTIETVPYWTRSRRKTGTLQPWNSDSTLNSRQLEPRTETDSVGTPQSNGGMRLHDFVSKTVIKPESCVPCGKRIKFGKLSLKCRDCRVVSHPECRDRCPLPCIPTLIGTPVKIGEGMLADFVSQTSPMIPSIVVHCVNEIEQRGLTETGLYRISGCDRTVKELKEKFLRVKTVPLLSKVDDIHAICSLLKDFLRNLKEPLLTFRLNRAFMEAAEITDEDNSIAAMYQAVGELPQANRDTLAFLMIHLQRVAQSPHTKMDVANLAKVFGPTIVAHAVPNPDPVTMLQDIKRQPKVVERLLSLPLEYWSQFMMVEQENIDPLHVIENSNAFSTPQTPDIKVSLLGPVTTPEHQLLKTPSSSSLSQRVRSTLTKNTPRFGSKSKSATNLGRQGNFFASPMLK

[7] = viability loss in HeLa cells – cytotoxicity control for MgcRacGAP inhibitor project, dose response (AID 624300); format: functional
[8] = biological target: Cyclin-dependent kinase 5/CDK5 activator 1 (Homo sapiens, UniProt Q00535); test: inhibitors of human CDK5 activity – biochemical, microfluidic mobility shift, dry powder, set 2, selectivity assay for GSK3beta inhibitor project, dose response (AID 623979); format: functional
Cyclin-dependent kinase 5/CDK5 activator 1, sequence (Q00535 whole entry): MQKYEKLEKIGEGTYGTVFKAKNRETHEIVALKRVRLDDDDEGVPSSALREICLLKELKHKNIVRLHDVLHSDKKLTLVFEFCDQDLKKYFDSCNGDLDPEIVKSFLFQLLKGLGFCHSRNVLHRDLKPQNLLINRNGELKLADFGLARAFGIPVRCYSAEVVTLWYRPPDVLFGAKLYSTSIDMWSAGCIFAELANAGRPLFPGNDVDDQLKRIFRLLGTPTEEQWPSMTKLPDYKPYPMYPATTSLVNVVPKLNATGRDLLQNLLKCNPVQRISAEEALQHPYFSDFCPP
Cyclin-dependent kinase 5/CDK5 activator 1, sequence (Q15078 whole entry, further chain): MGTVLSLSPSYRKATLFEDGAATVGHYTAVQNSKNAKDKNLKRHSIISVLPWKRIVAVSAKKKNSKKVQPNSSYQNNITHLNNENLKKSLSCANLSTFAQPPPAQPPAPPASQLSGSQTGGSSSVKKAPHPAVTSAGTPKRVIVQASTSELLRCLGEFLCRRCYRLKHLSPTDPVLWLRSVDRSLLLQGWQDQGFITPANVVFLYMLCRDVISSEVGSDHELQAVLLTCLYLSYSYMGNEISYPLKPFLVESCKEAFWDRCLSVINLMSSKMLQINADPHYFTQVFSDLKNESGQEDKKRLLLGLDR

[9] = biological target: Glycogen synthase kinase-3 alpha (Homo sapiens, UniProt P49840); test: GSK3A enzyme blockers, homolog specificity check – biochemical, microfluidics, dry powder samples, set 2, selectivity assay for GSK3beta inhibitor project, dose response (AID 623978); format: functional
Glycogen synthase kinase-3 alpha, sequence (P49840 whole entry): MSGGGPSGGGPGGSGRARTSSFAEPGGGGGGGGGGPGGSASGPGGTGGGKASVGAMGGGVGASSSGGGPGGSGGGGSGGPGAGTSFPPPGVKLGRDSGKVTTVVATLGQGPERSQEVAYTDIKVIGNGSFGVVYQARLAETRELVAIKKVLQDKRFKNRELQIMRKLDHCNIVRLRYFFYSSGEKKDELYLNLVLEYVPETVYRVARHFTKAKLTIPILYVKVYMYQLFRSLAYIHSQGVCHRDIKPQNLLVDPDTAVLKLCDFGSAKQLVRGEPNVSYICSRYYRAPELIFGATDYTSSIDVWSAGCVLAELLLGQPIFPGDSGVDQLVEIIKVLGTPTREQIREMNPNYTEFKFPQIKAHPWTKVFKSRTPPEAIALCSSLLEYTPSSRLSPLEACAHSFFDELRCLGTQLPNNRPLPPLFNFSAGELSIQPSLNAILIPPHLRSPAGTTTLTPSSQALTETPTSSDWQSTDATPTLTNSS

[10] = biological target: Glycogen synthase kinase-3 beta (Homo sapiens, UniProt P49841); test: inhibition of human GSK3B activity – biochemical, microfluidics, dry powder samples, set 2, dose response (AID 623989); format: functional
Glycogen synthase kinase-3 beta, sequence (P49841 whole entry): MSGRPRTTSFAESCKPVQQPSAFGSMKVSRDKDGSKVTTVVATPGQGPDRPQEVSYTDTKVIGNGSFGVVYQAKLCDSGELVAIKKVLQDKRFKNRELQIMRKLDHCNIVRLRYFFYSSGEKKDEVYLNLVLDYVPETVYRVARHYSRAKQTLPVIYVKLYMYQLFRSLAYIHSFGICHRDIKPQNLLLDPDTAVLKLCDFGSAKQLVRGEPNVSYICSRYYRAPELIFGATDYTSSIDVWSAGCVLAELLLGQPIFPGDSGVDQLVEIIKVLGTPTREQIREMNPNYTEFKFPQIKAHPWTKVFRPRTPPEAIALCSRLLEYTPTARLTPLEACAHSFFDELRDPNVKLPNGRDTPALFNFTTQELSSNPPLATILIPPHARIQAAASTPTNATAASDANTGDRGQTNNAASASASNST

[11] = biological target: Dual specificity tyrosine-phosphorylation-regulated kinase 1A (Rattus norvegicus, UniProt Q63470); format: biochemical, Homo sapiens
HeLa = test: ATP-based viability loss in HeLa cells – cell-based, CellTiter-Glo luminescence, cherry-pick samples, cytotoxicity control for MITF activator project, dose response (AID 540259); format: functional; details: Homo sapiens

Melanin-concentrating hormone receptor 1, sequence (Q99705 whole entry): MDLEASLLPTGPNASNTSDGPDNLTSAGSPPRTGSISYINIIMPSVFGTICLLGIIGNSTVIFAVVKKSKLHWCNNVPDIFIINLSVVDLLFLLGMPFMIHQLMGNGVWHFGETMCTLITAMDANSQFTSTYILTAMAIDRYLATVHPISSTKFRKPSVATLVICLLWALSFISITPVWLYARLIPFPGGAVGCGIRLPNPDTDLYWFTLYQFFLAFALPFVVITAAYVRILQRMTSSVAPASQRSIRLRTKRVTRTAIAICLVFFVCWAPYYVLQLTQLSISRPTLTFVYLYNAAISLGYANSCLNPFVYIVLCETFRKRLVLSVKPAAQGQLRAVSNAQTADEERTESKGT

COc1ccc(Oc2c(Cl)cnn(CC(=O)c3ccc(Cl)cc3Cl)c2=O)cc1
active: IC50 [1] 5.47 µM | IC50 [2] 1.85 µM

COc1cccc(Nc2nc(-c3ccc(O)cc3)cs2)c1
active: AC50 [3] 7.47 µM | AC50 [4] 34.7 µM | AC50 [5] 19.6 µM | IC50 [6] 66.1 µM | CC50 [7] 100 µM | AC50 [8] 33 µM | AC50 [9] 8.21 µM | AC50 [10] 2.8 µM | AC50 [11] 10.2 µM | AC50 (HeLa) 54.8 µM
